# In patent US20060287247A1, “Halogen-substituted thienyl compounds” (priority 2001, published 2006):
# How the values were obtained:
# S. aureus ATCC 29213 = experiment: NCCLS broth microdilution MIC; format: cell-based, Staphylococcus aureus; conditions: A = S. aureus ATCC 29213
# Method: (§1) Compounds according to this invention were screened for their in vitro activities against selected species of bacteria and fungi. The minimal inhibition concentration (MIC) of these compounds was determined using the National Committee for Clinical Laboratory Standards (NCCLS) broth microdilution assay in microtiter plates, as set forth in: (1) the guidelines of the National Committee for Clinical Laboratory Standards (NCCLS) Document M7-A4 (NCCLS, 1997); (2) the guidelines of the National Committee for Clinical Laboratory Standards (NCCLS) Document M11-A4 (NCCLS, 1997); and (3) the guidelines and reference method of the National Committee for Clinical Laboratory Standards (NCCLS) Document M27-T (NCCLS, 1995). For antifungal essays, the method recommended in Murray, P R., 1995 Manual of Clinical Microbiology (ASM Press, Washington, D.C.), was employed. […]
# E. faecalis ATCC 29212 = experiment: NCCLS broth microdilution MIC; format: cell-based, Enterococcus faecalis; conditions: B = E. faecalis ATCC 29212
# Method: as §1
# B. cereus ATCC 11778 = experiment: NCCLS broth microdilution MIC; format: cell-based, Bacillus cereus; conditions: C = B. cereus ATCC 11778
# Method: as §1
# E. coli ATCC 25922 = experiment: NCCLS broth microdilution MIC; format: cell-based; conditions: D = E. coli ATCC 25922
# Method: as §1
# C. albicans ATCC 38247 = experiment: NCCLS broth microdilution MIC (antifungal); format: cell-based; conditions: E = C. albicans ATCC 38247
# Method: as §1
# S. pneumoniae ATCC 49619 = experiment: NCCLS broth microdilution MIC; format: cell-based, Streptococcus pneumoniae; conditions: F = S. pneumoniae ATCC 49619
# Method: as §1
# 5′-AAAAAGACAAAAA-3′ = format: binding; conditions: DNA sequence 5′-AAAAAGACAAAAA-3′; pH 7.0, 22° C.
# Method: (§2) A number of compounds according to this invention were screened for their ability to bind to three DNA sites, using DNase I footprinting. Generally, the procedure described in Dervan, WO 98/50582 (1998), was followed.
# (§3) A plasmid was prepared by hybridizing two sets of 5′-phosphorylated complementary oligonucleotides, one set being
# (§4) The target sites and their complements are identified in bold underline.
# (§5) The resulting duplexes were ligated to the large pUC19 AvaI/SalI restriction fragment. The 3′-P32 end-labeled EcoRI/PvuII fragment was prepared by digesting the plasmid with EcoRI and PvuII with simultaneous fill-in using Sequenase v. 2.0, [alpha-P32]-deoxyadenosine-5′-triphosphate, and [alpha-P32]-thymidine-5′-triphosphate, and isolating the cloned fragment by nondenaturing gel electrophoresis. Standard methods were used for all DNA manipulations, including A and G sequencing. See, e.g., Maxam et al., Methods Enzymol., 1980, 65, 499-560; Iverson et al., Methods Enzymol., 1987, 15, 7823-7830; and Sambrook et al., 1989, Molecular Cloning, 2nd ed., Cold Spring Harbor Laboratory Press: Cold Spring Harbor, N.Y.
# (§6) Quantitative DNase I footprint titration experiments were carried out as described previously (Dervan, WO 98/50582, 1998, “Dervan '582”) with the following changes. All reactions were carried out in a total volume of 400 μL, with polyamide stock solution or water added to 15,000 cpm radiolabeled restriction fragment affording final solution conditions of 10 mM Tris.HCl, 10 mM KCl, 10 mM MgCl2, 5 mM CaCl2, pH 7.0 and 0.01 nM, 0.1 nM, 1.0 nM, 10.0 nM polyamide or no polyamide for reference lanes. The polyamides were allowed to equilibrate at 22° C. for 16 hr. Footprinting reactions were initiated with addition of 10 μL of a DNase I stock solution (at the appropriate concentration to give ˜50% intact DNA) containing 1 mM DTT and allowed to proceed for 7 min at 22° C. The reactions were stopped, ethanol precipitated, resuspended in loading buffer, heat denatured, and placed on ice as described in Dervan '582. The reaction products were separated on a precast 8% polyacrylamide denaturing sequencing Castaway gel with 32 preformed wells from Stratagene in 1× TBE at 2000 V. Gels were dried according to the manufacturer's instructions and exposed to a storage phosphor screen (Molecular Dynamics). Quantitation and data analysis were carried out as described in Dervan '582.
# 5′-AAAAAGCAAAAA-3′ = format: binding; conditions: DNA sequence 5′-AAAAAGCAAAAA-3′; pH 7.0, 22° C.
# Method: as §2, §3, §4, §5, §6
# 5′-AAAAAGTACAAAAA-3′ = format: binding; conditions: DNA sequence 5′-AAAAAGTACAAAAA-3′; pH 7.0, 22° C.
# Method: as §2, §3, §4, §5, §6
SMILES,Minimum Inhibitory Concentration (MIC) (S. aureus ATCC 29213),Minimum Inhibitory Concentration (MIC) (E. faecalis ATCC 29212),Minimum Inhibitory Concentration (MIC) (B. cereus ATCC 11778),Minimum Inhibitory Concentration (MIC) (E. coli ATCC 25922),Minimum Inhibitory Concentration (MIC) (C. albicans ATCC 38247),Minimum Inhibitory Concentration (MIC) (S. pneumoniae ATCC 49619),Equilibrium Association Constant (Ka) (5′-AAAAAGACAAAAA-3′),Equilibrium Association Constant (Ka) (5′-AAAAAGCAAAAA-3′),Equilibrium Association Constant (Ka) (5′-AAAAAGTACAAAAA-3′)
CN(C)CCCNC(=O)CCNC(=O)c1cc(NC(=O)c2cc(NC(=O)CCNC(=O)c3cc(NC(=O)c4cc(NC(=O)c5cc(Br)c(Br)s5)cn4C)cn3C)cn2C)cn1C [Id-1],+++ (+++ = MIC ≦4),+++ (+++ = MIC ≦4),+++ (+++ = MIC ≦4),>32 µg/mL,>32 µg/mL,+++ (+++ = MIC ≦4),≧1 × 10^11 M^−1,≧1 × 10^11 M^−1,≧1 × 10^11 M^−1
Cn1cc(NC(=O)c2cc(NC(=O)CCNC(=O)c3cc(NC(=O)c4cc(NC(=O)c5cc(Br)c(Br)s5)cn4C)cn3C)cn2C)cc1C(=O)NCCC(=O)NCCCN1CCNCC1 [Id-13],>32 µg/mL,>32 µg/mL,>32 µg/mL,>32 µg/mL,>32 µg/mL,>32 µg/mL,–,–,–
Cn1cc(NC(=O)c2cc(NC(=O)CCNC(=O)c3cc(NC(=O)c4cc(NC(=O)c5ccc(Br)s5)cn4C)cn3C)cn2C)cc1C(=O)NCCC(=O)NCCCNC1CCCCC1 [Id-15],>32 µg/mL,"+ (+ = MIC from 12 to 32, inclusive)","+ (+ = MIC from 12 to 32, inclusive)",–,>32 µg/mL,++ (++ = MIC between 4 and 12),5e+10 M⁻¹,5e+10 M⁻¹,≧1 × 10^11 M^−1
Cn1cc(NC(=O)c2cc(NC(=O)CCNC(=O)c3cc(NC(=O)c4cc(NC(=O)c5ccc(Br)s5)cn4C)cn3C)cn2C)cc1C(=O)NCCC(=O)NCC(C)(C)CN [Id-20],>32 µg/mL,>32 µg/mL,>32 µg/mL,>32 µg/mL,>32 µg/mL,+++ (+++ = MIC ≦4),–,–,–
Cn1cc(NC(=O)c2cc(NC(=O)CCNC(=O)c3cc(NC(=O)c4cc(NC(=O)c5ccc(Br)s5)cn4C)cn3C)cn2C)cc1C(=O)NCCC(=O)NCc1cccnc1 [Id-23],>32 µg/mL,+++ (+++ = MIC ≦4),>32 µg/mL,>32 µg/mL,>32 µg/mL,+++ (+++ = MIC ≦4),–,–,–
Cn1cc(NC(=O)c2cc(NC(=O)CCNC(=O)c3cc(NC(=O)c4cc(NC(=O)c5cc(Br)c(NCCCN)s5)cn4C)cn3C)cn2C)cc1C(=O)NCCC(=O)NCCCN [Id-25],"+ (+ = MIC from 12 to 32, inclusive)","+ (+ = MIC from 12 to 32, inclusive)",+++ (+++ = MIC ≦4),>32 µg/mL,>32 µg/mL,+++ (+++ = MIC ≦4),–,–,–
CN(C)CCCNC(=O)CCNC(=O)c1cc(NC(=O)c2cc(NC(=O)CCNC(=O)c3cc(NC(=O)c4cc(NC(=O)c5sccc5Cl)cn4C)cn3C)cn2C)cn1C [Id-27],++ (++ = MIC between 4 and 12),>32 µg/mL,+++ (+++ = MIC ≦4),>32 µg/mL,"+ (+ = MIC from 12 to 32, inclusive)",+++ (+++ = MIC ≦4),–,–,–
CN(C)CCCNC(=O)CCNC(=O)c1cc(NC(=O)c2cc(NC(=O)CCNC(=O)c3cc(NC(=O)c4cc(NC(=O)c5sccc5F)cn4C)cn3C)cn2C)cn1C [Id-30],>32 µg/mL,>32 µg/mL,>32 µg/mL,>32 µg/mL,>32 µg/mL,++ (++ = MIC between 4 and 12),–,–,–
CN(C)CCCNC(=O)c1cc(NC(=O)c2cc(NC(=O)c3cc(NC(=O)c4sccc4F)cn3C)cn2C)cn1C [Ie-4],++ (++ = MIC between 4 and 12),++ (++ = MIC between 4 and 12),"+ (+ = MIC from 12 to 32, inclusive)",>32 µg/mL,>32 µg/mL,+++ (+++ = MIC ≦4),–,–,–
Cn1cc(NC(=O)c2cc(NC(=O)c3cc(NC(=O)c4sccc4F)cn3C)cn2C)cc1C(=O)NCCN1CCOCC1 [Ie-5],+++ (+++ = MIC ≦4),>32 µg/mL,+++ (+++ = MIC ≦4),>32 µg/mL,>32 µg/mL,+++ (+++ = MIC ≦4),–,–,–
Cn1cc(NC(=O)c2cc(NC(=O)c3cc(NC(=O)c4sccc4Cl)cn3C)cn2C)cc1C(=O)NCCN1CCOCC1 [Ie-6],+++ (+++ = MIC ≦4),+++ (+++ = MIC ≦4),+++ (+++ = MIC ≦4),>32 µg/mL,>32 µg/mL,+++ (+++ = MIC ≦4),–,–,–
Cc1csc(C(=O)Nc2cc(C(=O)Nc3cc(C(=O)Nc4cc(C(=O)NCCN5CCOCC5)n(C)c4)n(C)c3)n(C)c2)c1Cl [Ie-11],+++ (+++ = MIC ≦4),+++ (+++ = MIC ≦4),+++ (+++ = MIC ≦4),>32 µg/mL,>32 µg/mL,+++ (+++ = MIC ≦4),–,–,–
CN(C)CCCNC(=O)CCNC(=O)c1cc(NC(=O)c2cc(NC(=O)c3cc(NC(=O)c4nc(NC(=O)CCCNC(=O)c5cc(NC(=O)c6cc(NC(=O)c7cc(NC(=O)c8cc(Br)c(Br)s8)cn7C)cn6C)cn5C)cn4C)cn3C)cn2C)cn1C [If-1],>32 µg/mL,>32 µg/mL,>32 µg/mL,>32 µg/mL,>32 µg/mL,>32 µg/mL,–,–,–
Cn1cc(NC(=O)c2cc(NC(=O)c3cc(NC(=O)c4ccc(Br)s4)cn3C)cn2C)cc1C(=O)NCCCC(=O)Nc1cn(C)c(C(=O)Nc2cc(C(=O)Nc3cc(C(=O)Nc4cc(C(=O)NCCC(=O)NCCCN5CCNCC5)n(C)c4)n(C)c3)n(C)c2)n1 [If-2],>32 µg/mL,>32 µg/mL,>32 µg/mL,>32 µg/mL,>32 µg/mL,>32 µg/mL,–,–,–
